Among the data in patent publication US8445510B2, “Fused bicyclic kinase inhibitors” (OSI Pharmaceuticals, LLC, priority 2011, dated 2013) are IC50 values, retold here.

As usually defined, the IC50 is the concentration needed to halve the response being measured.

In experiment [1] the test system is MKN45 cells. The experiment in a line: MKN45 cell proliferation assay (CellTiter-Glo). Format: cell-based. The note with it: Homo sapiens, MKN-45, 72 h; MKN45 cell line; 3 days incubation; at least duplicate experiments; read-out: Prolif. IC50.
The target of experiment [2] is T1, RON (Homo sapiens, UniProt Q04912).
T1 sequence (Q04912 913-1400): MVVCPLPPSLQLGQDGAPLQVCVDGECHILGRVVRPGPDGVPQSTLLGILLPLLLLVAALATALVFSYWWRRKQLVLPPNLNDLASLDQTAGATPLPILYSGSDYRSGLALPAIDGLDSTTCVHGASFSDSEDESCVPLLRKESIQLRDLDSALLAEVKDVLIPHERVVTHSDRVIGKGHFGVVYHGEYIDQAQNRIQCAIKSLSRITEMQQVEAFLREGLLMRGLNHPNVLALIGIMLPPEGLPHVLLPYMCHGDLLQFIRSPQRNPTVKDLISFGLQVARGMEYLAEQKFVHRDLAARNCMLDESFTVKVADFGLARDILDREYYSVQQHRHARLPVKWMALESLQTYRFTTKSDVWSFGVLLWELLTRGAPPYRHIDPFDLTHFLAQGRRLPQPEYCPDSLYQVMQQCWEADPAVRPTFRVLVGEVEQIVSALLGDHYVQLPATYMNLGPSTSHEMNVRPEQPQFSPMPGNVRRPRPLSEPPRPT
Put plainly: sfRON cell mechanistic assay (HeLa), phosphorylated RON ELISA. Format: cell-based. Particulars: HeLa cells transfected with sfRON; inhibition of phosphorylated RON; four hours incubation; at least duplicate experiments; read-out: sfRON mech IC50. The method in brief:
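HeLa cells transiently transfected with sfRON plasmid, then exposed 4 h at 37 °C to a 6-point compound series (typically 10 μM to 3 nM, 0.5% DMSO). Phospho-RON (pY1238/1239) in lysates measured by sandwich ELISA with luminescence. IC50 from 4-parameter fit of percent-of-DMSO-control data, at least duplicate runs.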
A general note: In an ELISA, binding on a coated surface is turned into a signal by an enzyme label.

Regarding `CCc1nn([C@H]2CC[C@H](O)CC2)cc1-c1cnc2[nH]cc([C@H](C)c3c(OC)ccc(F)c3Cl)c2c1` [Example 47, trans-4-(4-{3-[(1S)-1-(2-Chloro-3-fluoro-6-methoxyphenyl)ethyl]-1H-pyrrolo[2,3-b]pyridin-5-yl}-3-ethyl-1H-pyrazol-1-yl)cyclohexanol], the IC50 in experiment [1] is ≤ 50 nM; in experiment [2], 200 to 1000 nM.
The matching figures for `Cc1c(-c2cnc3[nH]cc([C@H](C)c4c(O)ccc(F)c4Cl)c3c2)cnn1[C@H]1CC[C@H](O)CC1` [Example 102, 3-Chloro-4-fluoro-2-[(1S)-1-{5-[1-(trans-4-hydroxycyclohexyl)-5-methyl-1H-pyrazol-4-yl]-1H-pyrrolo[2,3-b]pyridin-3-yl}ethyl]phenol]: ≤ 50 nM and 200 to 1000 nM.
The matching figures for `CCc1c(-c2cnc3[nH]cc([C@H](C)c4c(OC(F)F)ccc(F)c4Cl)c3c2)cnn1CC(C)(C)O` [Example 72, 1-[4-(3-{(1S)-1-[2-Chloro-6-(difluoromethoxy)-3-fluorophenyl]ethyl}-1H-pyrrolo[2,3-b]pyridin-5-yl)-5-ethyl-1H-pyrazol-1-yl]-2-methylpropan-2-ol]: 50 to 200 nM and 200 to 1000 nM.
Regarding `COc1ccc(F)c(Cl)c1[C@@H](C)c1c[nH]c2ncc(-c3cnn(CC(C)(C)O)c3C)cc12` [Example 8, 1-(4-{3-[(1S)-1-(2-Chloro-3-fluoro-6-methoxyphenyl)ethyl]-1H-pyrrolo[2,3-b]pyridin-5-yl}-5-methyl-1H-pyrazol-1-yl)-2-methylpropan-2-ol], the figures for the IC50 in experiment [1] and in experiment [2] were ≤ 50 nM and 200 to 1000 nM, respectively.
Take `COc1ccc(F)c(Cl)c1[C@@H](C)c1c[nH]c2ncc(-c3cn([C@@H]4C[C@@H](O)[C@@H](O)C4)nc3C)cc12` [Example 32, (1R,2S,4S)-4-(4-{3-[(1S)-1-(2-Chloro-3-fluoro-6-methoxyphenyl)ethyl]-1H-pyrrolo[2,3-b]pyridin-5-yl}-3-methyl-1H-pyrazol-1-yl)cyclopentane-1,2-diol]: the IC50 is ≤ 50 nM in experiment [1] and ≤ 200 nM in experiment [2].
The matching figures for `COc1ccc(F)c(Cl)c1[C@@H](C)c1c[nH]c2ncc(-c3cnn([C@H]4CC[C@H](C(=O)N(C)C)CC4)c3C)cc12` [Example 14, Trans-4-(4-{3-[(1S)-1-(2-chloro-3-fluoro-6-methoxyphenyl)ethyl]-1H-pyrrolo[2,3-b]pyridin-5-yl}-5-methyl-1H-pyrazol-1-yl)-N,N-dimethylcyclohexanecarboxamide]: ≤ 50 nM and 200 to 1000 nM.
With `COc1ccc(F)c(Cl)c1[C@@H](C)c1c[nH]c2ncc(-c3cnn(C)c3C)cc12` [Example 3, 3-[(1S)-1-(2-Chloro-3-fluoro-6-methoxyphenyl)ethyl]-5-(1,5-dimethyl-1H-pyrazol-4-yl)-1H-pyrrolo[2,3-b]pyridine], the IC50 in experiment [1] was ≤ 50 nM; in experiment [2] it was 200 to 1000 nM.
Consider `COc1ccc(F)c(Cl)c1[C@@H](C)c1c[nH]c2ncc(-c3cn(C)nc3Cl)cc12` [Example 60, 3-[(1S)-1-(2-chloro-3-fluoro-6-methoxyphenyl)ethyl]-5-(3-chloro-1-methyl-1H-pyrazol-4-yl)-1H-pyrrolo[2,3-b]pyridine], for which the 50% inhibitory concentration (IC50) in experiment [1] is 50 to 200 nM; in experiment [2], > 1000 nM.
For the molecule `COc1ccc(F)c(Cl)c1[C@@H](C)c1c[nH]c2ncc(-c3cncn3C)cc12` [Example 64, 3-[(1S)-1-(2-Chloro-3-fluoro-6-methoxyphenyl)ethyl]-5-(1-methyl-1H-imidazol-5-yl)-1H-pyrrolo[2,3-b]pyridine], the results for the IC50 in experiment [1] and in experiment [2] were 50 to 200 nM and > 1000 nM, respectively.
In the case of `CCc1nn(CC(C)(C)O)cc1-c1cnc2[nH]cc([C@H](C)c3c(OC)ccc(F)c3Cl)c2c1` [Example 12, 1-(4-{3-[(1S)-1-(2-Chloro-3-fluoro-6-methoxyphenyl)ethyl]-1H-pyrrolo[2,3-b]pyridin-5-yl}-3-ethyl-1H-pyrazol-1-yl)-2-methylpropan-2-ol], the values for the IC50 in experiment [1] and in experiment [2] were 50 to 200 nM and 200 to 1000 nM, respectively.
On to `COc1ccc(F)c(Cl)c1[C@@H](C)c1c[nH]c2ncc(-c3cn(C[C@@H](O)CO)nc3C(F)(F)F)cc12` [Example 34, (2R)-3-[4-{3-[(1S)-1-(2-Chloro-3-fluoro-6-methoxyphenyl)ethyl]-1H-pyrrolo[2,3-b]pyridin-5-yl}-3-(trifluoromethyl)-1H-pyrazol-1-yl]propane-1,2-diol], for which the IC50 in experiment [1] was 50 to 200 nM; in experiment [2], > 1000 nM.
The matching figures for `C[C@H](c1c(OC(F)F)ccc(F)c1Cl)c1c[nH]c2ncc(-c3cnn([C@H]4CC[C@H](O)CC4)c3Cl)cc12` [Example 82, trans-4-[5-Chloro-4-(3-{(1S)-1-[2-chloro-6-(difluoromethoxy)-3-fluorophenyl]ethyl}-1H-pyrrolo[2,3-b]pyridin-5-yl)-1H-pyrazol-1-yl]cyclohexanol]: ≤ 50 nM and 200 to 1000 nM.
The matching figures for `[2H][C@@](C)(c1c(OC)ccc(F)c1Cl)c1c[nH]c2ncc(-c3cnn([C@H]4CC[C@H](O)CC4)c3C)cc12` [Example 110, trans-4-(4-{3-[(1S)-1-(2-Chloro-3-fluoro-6-methoxyphenyl)(1-^2H)ethyl]-1H-pyrrolo[2,3-b]pyridin-5-yl}-5-methyl-1H-pyrazol-1-yl)cyclohexanol]: ≤ 50 nM and 200 to 1000 nM.
With `CC(=O)N1CCC(n2ncc(-c3cnc4[nH]cc([C@H](C)c5c(OC(F)F)ccc(F)c5Cl)c4c3)c2C)CC1` [Example 97, 1-{4-[4-(3-{(1S)-1-[2-Chloro-6-(difluoromethoxy)-3-fluorophenyl]ethyl}-1H-pyrrolo[2,3-b]pyridin-5-yl)-5-methyl-1H-pyrazol-1-yl]piperidin-1-yl}ethanone], the values for the IC50 in experiment [1] and in experiment [2] were ≤ 50 nM and ≤ 200 nM, respectively.
`CCc1nn([C@H]2CC[C@H](O)CC2)cc1-c1cnc2[nH]cc([C@H](C)c3c(OC(F)F)ccc(F)c3Cl)c2c1` [Example 77, trans-4-[4-(3-{(1S)-1-[2-Chloro-6-(difluoromethoxy)-3-fluorophenyl]ethyl}-1H-pyrrolo[2,3-b]pyridin-5-yl)-3-ethyl-1H-pyrazol-1-yl]cyclohexanol]: the IC50 in experiment [1] is ≤ 50 nM; in experiment [2], ≤ 200 nM.
Consider `CCc1c(-c2cnc3[nH]cc([C@H](C)c4c(OC)ccc(F)c4Cl)c3c2)cnn1CC(C)(C)O` [Example 11, 1-(4-{3-[(1S)-1-(2-Chloro-3-fluoro-6-methoxyphenyl)ethyl]-1H-pyrrolo[2,3-b]pyridin-5-yl}-5-ethyl-1H-pyrazol-1-yl)-2-methylpropan-2-ol], for which the IC50 lay in the range of 50 to 200 nM in experiment [1] and 200 to 1000 nM in experiment [2].
In the case of `Cc1nn(C[C@@H](O)CO)c(C)c1-c1cnc2[nH]cc([C@H](C)c3c(OC(F)F)ccc(F)c3Cl)c2c1` [Example 69, (2R)-3-[4-(3-{(1S)-1-[2-Chloro-6-(difluoromethoxy)-3-fluorophenyl]ethyl}-1H-pyrrolo[2,3-b]pyridin-5-yl)-3,5-dimethyl-1H-pyrazol-1-yl]propane-1,2-diol], the IC50 in experiment [1] is ≤ 50 nM; in experiment [2], ≤ 200 nM.
As to `COc1ccc(F)c(Cl)c1[C@@H](C)c1c[nH]c2ncc(-c3cn([C@H]4CC[C@H](C(N)=O)CC4)nc3C)cc12` [Example 19, trans-4-(4-{3-[(1S)-1-(2-Chloro-3-fluoro-6-methoxyphenyl)ethyl]-1H-pyrrolo[2,3-b]pyridin-5-yl}-3-methyl-1H-pyrazol-1-yl)cyclohexanecarboxamide], the IC50 is ≤ 50 nM in experiment [1] and ≤ 200 nM in experiment [2].
As for `COc1ccc(F)c(Cl)c1[C@@H](C)c1c[nH]c2ncc(-c3cnn(C)c3OC)cc12` [Example 62, 3-[(1S)-1-(2-chloro-3-fluoro-6-methoxyphenyl)ethyl]-5-(5-methoxy-1-methyl-1H-pyrazol-4-yl)-1H-pyrrolo[2,3-b]pyridine], the IC50 in experiment [1] is 50 to 200 nM; in experiment [2], > 1000 nM.
Regarding `CNC(=O)[C@H]1CC[C@H](n2ncc(-c3cnc4[nH]cc([C@H](C)c5c(OC)ccc(F)c5Cl)c4c3)c2C)CC1` [Example 17, trans-4-(4-{3-[(1S)-1-(2-Chloro-3-fluoro-6-methoxyphenyl)ethyl]-1H-pyrrolo[2,3-b]pyridin-5-yl}-5-methyl-1H-pyrazol-1-yl)-N-methyl cyclohexanecarboxamide], the figures for the IC50 in experiment [1] and in experiment [2] were ≤ 50 nM and ≤ 200 nM, respectively.
The like results for `C[C@H](c1c(OC(F)F)ccc(F)c1Cl)c1c[nH]c2ncc(-c3cnn([C@H]4CC[C@H](O)CC4)c3CO)cc12` [Example 83, trans-4-[4-(3-{(1S)-1-[2-Chloro-6-(difluoromethoxy)-3-fluorophenyl]ethyl}-1H-pyrrolo[2,3-b]pyridin-5-yl)-5-(hydroxymethyl)-1H-pyrazol-1-yl]cyclohexanol] were, in that order, ≤ 50 nM and 200 to 1000 nM.
The matching figures for `COc1ccc(F)c(Cl)c1[C@@H](C)c1c[nH]c2ncc(-c3c(C)nn(C)c3C)cc12` [Example 4, 3-[(1S)-1-(2-Chloro-3-fluoro-6-methoxyphenyl)ethyl]-5-(1,3,5-trimethyl-1H-pyrazol-4-yl)-1H-pyrrolo[2,3-b]pyridine]: 200 to 1000 nM and > 1000 nM.
